Data as given in ChEMBL document CHEMBL5120800, “Lathyrane and Jatrophane Diterpenoids from Euphorbia helioscopia Evaluated for Cytotoxicity against a Paclitaxel-Resistant A549 Human Lung Cancer Cell Line” (J Nat Prod, 2022).

How the values were obtained:
[1] = test system: A549; experiment: Cytotoxicity against human A549 cells assessed as inhibition of cell growth incubated for 72 hrs by MTT assay; format: functional, cell-based; settings: A549, 72 h
[2] = Cytotoxicity against human A549/PTX cells assessed as inhibition of cell growth incubated for 72 hrs by MTT assay; format: functional, cell-based

CC(=O)O[C@]12C[C@@H](C)[C@H](OC(=O)c3ccccc3)[C@@H]1/C=C(\C)[C@H](OC(=O)c1ccccc1)CC(=O)C(C)(C)/C=C/[C@@H](C)C2=O
IC50 [1]: > 10 µM | IC50 [2]: 7.2 µM

CC(=O)O[C@@H]1[C@H](C)/C=C/C(C)(C)C(=O)C[C@@H](OC(=O)c2cccnc2)/C(C)=C/[C@H]2[C@@H](OC(=O)c3ccccc3)[C@H](C)C[C@]12OC(C)=O
IC50 [1]: > 10 µM | IC50 [2]: 9.5 µM

CC(=O)O[C@@H]1[C@H](C)/C=C/C(C)(C)C(=O)C[C@@H](OC(=O)c2ccccc2)/C(C)=C/[C@H]2[C@@H](OC(=O)c3ccccc3)[C@H](C)C[C@]12OC(C)=O [EUPHOSCOPIN C]
IC50 [1]: > 10 µM | IC50 [2]: 6.9 µM

CC(=O)O[C@H]1C(=O)[C@@]2(C)[C@H]([C@H](OC(=O)c3ccccc3)[C@]3(O)C[C@H](OC(=O)[C@H](O)[C@@H](NC(=O)c4ccccc4)c4ccccc4)C(C)=C1C3(C)C)[C@]1(OC(C)=O)CO[C@@H]1C[C@@H]2O [PACLITAXEL]
IC50 [1]: 0.0675 µM
